Measurements from paper PMC3914206.

Legend:
Type in all cases: binding
Set-up in all cases: KINOMEscan: ABL1(F317L)-phosphorylated / KINOMEscan: ABL1(H396P)-nonphosphorylated / KINOMEscan: ABL1(H396P)-phosphorylated / KINOMEscan: ABL1(M351T)-phosphorylated / KINOMEscan: ABL1(T315I)-phosphorylated / KINOMEscan: ABL1-nonphosphorylated / KINOMEscan: ABL1-phosphorylated / KINOMEscan: ACVR2A / KINOMEscan: ACVR2B / KINOMEscan: ADCK3 / KINOMEscan: ADCK4 / KINOMEscan: AKT1 / KINOMEscan: AKT3 / KINOMEscan: ALK / KINOMEscan: ARK5 / KINOMEscan: AURKA / KINOMEscan: AURKC / KINOMEscan: BIKE / KINOMEscan: BMPR1A / KINOMEscan: BMPR1B / KINOMEscan: BMX / KINOMEscan: BRK / KINOMEscan: BRSK1 / KINOMEscan: BRSK2 / KINOMEscan: CAMK1 / KINOMEscan: CAMK1D / KINOMEscan: CAMK1G / KINOMEscan: CAMK2A / KINOMEscan: CAMK2B / KINOMEscan: AAK1 / KINOMEscan: CAMK2D / KINOMEscan: CAMK2G / KINOMEscan: ABL1(F317I)-nonphosphorylated / KINOMEscan: ABL1(F317I)-phosphorylated / KINOMEscan: ABL1(F317L)-nonphosphorylated: unit: % Ctrl
Conditions in all cases: Compound Concentration 10 µM
[1] = biological target: T1, panel of 442 kinases (Homo sapiens, UniProt Q14004)
T1 construct: purchased KINOMEscan
T1 sequence (Q14004 whole entry): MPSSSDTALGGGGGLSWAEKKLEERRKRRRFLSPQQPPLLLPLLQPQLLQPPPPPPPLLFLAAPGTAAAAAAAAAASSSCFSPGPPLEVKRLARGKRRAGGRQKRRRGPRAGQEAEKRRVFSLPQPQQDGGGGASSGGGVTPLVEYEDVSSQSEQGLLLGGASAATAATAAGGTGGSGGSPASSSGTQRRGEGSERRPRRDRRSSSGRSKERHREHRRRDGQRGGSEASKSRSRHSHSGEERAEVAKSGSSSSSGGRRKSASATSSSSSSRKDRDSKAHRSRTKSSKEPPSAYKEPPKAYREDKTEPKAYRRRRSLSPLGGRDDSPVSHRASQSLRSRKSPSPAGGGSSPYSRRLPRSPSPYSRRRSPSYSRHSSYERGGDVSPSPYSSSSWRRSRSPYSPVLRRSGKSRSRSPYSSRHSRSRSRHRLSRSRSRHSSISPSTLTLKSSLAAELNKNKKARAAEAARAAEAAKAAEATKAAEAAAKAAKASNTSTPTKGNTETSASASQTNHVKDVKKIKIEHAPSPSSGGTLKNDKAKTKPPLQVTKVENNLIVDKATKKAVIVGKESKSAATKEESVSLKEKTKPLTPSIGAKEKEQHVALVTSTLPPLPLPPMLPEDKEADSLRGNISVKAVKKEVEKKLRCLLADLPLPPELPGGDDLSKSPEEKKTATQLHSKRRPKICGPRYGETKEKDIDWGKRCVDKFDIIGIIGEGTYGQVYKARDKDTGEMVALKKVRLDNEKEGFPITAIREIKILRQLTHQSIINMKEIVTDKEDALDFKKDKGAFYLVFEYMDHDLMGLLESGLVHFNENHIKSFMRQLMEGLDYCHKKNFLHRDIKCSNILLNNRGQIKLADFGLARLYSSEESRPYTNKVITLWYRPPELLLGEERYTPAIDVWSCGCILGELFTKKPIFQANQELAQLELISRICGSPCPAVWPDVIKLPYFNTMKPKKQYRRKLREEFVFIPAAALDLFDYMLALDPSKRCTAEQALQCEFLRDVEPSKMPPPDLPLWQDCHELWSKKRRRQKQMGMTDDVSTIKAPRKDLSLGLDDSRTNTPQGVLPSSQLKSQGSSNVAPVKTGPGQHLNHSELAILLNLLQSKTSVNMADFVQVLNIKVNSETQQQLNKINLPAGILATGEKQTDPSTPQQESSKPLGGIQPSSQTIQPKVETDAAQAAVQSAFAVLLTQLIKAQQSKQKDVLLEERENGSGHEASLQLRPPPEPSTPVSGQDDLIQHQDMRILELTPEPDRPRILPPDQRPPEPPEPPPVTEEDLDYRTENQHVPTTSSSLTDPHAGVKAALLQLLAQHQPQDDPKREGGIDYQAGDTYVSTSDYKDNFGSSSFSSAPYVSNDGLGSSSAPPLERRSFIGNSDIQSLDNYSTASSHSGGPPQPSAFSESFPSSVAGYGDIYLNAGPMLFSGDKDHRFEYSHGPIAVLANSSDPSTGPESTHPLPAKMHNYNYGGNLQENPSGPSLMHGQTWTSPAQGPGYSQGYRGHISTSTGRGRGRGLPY
Description: (§1) We assessed the selectivity of members of this scaffold using the KINOMEscan methodology across a near comprehensive panel of 442 kinases [[18,27]].

[2] = biological target: T2, panel of 442 kinases (Homo sapiens, UniProt Q8IU85)
T2 construct: purchased KINOMEscan
T2 sequence (Q8IU85 whole entry): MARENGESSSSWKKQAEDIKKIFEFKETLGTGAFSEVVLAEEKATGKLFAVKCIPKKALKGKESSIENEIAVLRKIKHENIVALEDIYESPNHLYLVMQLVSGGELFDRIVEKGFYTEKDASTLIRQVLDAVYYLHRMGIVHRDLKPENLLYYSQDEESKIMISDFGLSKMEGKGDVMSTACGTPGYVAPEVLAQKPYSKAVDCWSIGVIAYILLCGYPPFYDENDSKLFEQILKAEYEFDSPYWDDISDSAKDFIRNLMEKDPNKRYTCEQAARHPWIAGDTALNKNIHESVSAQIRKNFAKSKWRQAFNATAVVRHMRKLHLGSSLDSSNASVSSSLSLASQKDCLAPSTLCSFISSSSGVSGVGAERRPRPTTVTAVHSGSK
Description: as §1

[3] = biological target: T3, panel of 442 kinases (Homo sapiens, UniProt Q9Y243)
T3 construct: purchased KINOMEscan
T3 sequence (Q9Y243 whole entry): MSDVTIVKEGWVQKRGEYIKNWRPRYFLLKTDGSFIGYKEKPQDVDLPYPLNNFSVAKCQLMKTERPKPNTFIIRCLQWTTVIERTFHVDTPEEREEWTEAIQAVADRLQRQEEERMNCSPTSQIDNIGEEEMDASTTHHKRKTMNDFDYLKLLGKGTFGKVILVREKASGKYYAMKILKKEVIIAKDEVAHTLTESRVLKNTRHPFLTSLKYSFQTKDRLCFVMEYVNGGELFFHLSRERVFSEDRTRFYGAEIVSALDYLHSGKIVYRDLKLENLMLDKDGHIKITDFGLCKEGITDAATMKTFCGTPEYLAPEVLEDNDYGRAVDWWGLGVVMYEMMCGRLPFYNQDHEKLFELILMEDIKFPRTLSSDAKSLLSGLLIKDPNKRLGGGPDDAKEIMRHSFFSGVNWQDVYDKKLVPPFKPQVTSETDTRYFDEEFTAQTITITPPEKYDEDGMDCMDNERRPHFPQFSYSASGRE
Description: as §1

Row | SMILES | KINOMEscan: CDC2L5 [1] | KINOMEscan: CAMK1D [2] | KINOMEscan: AKT3 [3]
1 | COc1cc(C(=O)N2CCC(N3CCN(C)CC3)CC2)ccc1Nc1ncc2c(n1)N(C)c1ccccc1C(=O)N2C [15 (LRRK2-IN-1)] | 100 | 69 | 100
2 | CCOc1cc(C(=O)N2CCC(N3CCN(C)CC3)CC2)ccc1Nc1ncc2c(n1)N(C1CCCC1)c1ccccc1C(=O)N2C [Compound 26] | 100 | 61 | 84
3 | COc1cc(C(=O)N2CCC(N3CCN(C)CC3)CC2)ccc1Nc1ncc2c(n1)N(C1CCCC1)c1ccccc1C(=O)N2C [Compound 25, 11-cyclopentyl-2-((2-methoxy-4-(4-(4-methylpiperazin-1-yl)piperidine-1-carbonyl)phenyl)amino)-5-methyl-5H-benzo[e]pyrimido[5,4-b][1,4]diazepin-6(11H)-one] | 100 | 77 | 100
